# “Also recorded” adds a separate entry of the source.
# Key:
# Type in all cases: cell-based, human
# CHK2 = assay: Western blot of phosphorylated CHK2 (Thr68) in activated Jurkat cells; settings: Jurkat activated with PMA+PHA
# Experimental: Cell lysis and nuclear extract: Cells were washed with cold PBS twice and centrifuged at 5000 rpm for 5 minutes. For the nuclear extract, pellets were suspended with 800 μL of 10 mN HEPES lysis buffer (10 mM HEPES at pH 7.9, 10 mM KCl, 1 mM DTT, and 1× protease and phosphatase inhibitor) and incubated on ice for 15 minutes. 50 μL of NP-40 (10% in water) was added and the pellets were mixed for 10 seconds. Lysates were centrifuged for 5 minutes at 4° C. at 13,000 rpm. The supernatant solution which is containing the cytosolic fraction was discarded and the pellets were resuspended in 20 mM HEPES lysis buffer (20 mM HEPES at pH 7.9, 0.4 M NaCl, 1 mM DTT, and 1× protease, and phosphatase inhibitor) and incubated on ice for 15 minutes with intermittent mixing. Lysates were centrifuged for 10 minutes at 4° C. at 13,000 rpm. The supernatant containing nuclear extract was stored at -20° C. until they were used for the Western blot analysis. For total cell lysates, cell pellets were resuspended with 100 μL of RIPA buffer (150 mM NaCl, 1% Triton X-100, 0.1% SDS, and 50 mM Tris at pH 8.0) and incubated on ice for 10 minutes. The lysates were centrifuged for 10 minutes at 4° C. at 13,000 rpm and the supernatant solutions were stored at -20° C. until they were used for the Western blot analysis. Western blot analysis: Nuclear extract lysates were separated on 3-8% Tris-Acetate gels (Invitrogen). […]
# mTOR = mTOR (phospho-ser2448) ELISA and western blot in activated Jurkat cells
# Experimental: Western blot analysis: Nuclear extract lysates were separated on 3-8% Tris-Acetate gels (Invitrogen). Total cell lysates were separated on 4-20% Tris-Glycine gels (Bio-Rad). Gels were transferred onto PVDF membrane (Millipore) for 2 hours in the cold room at 100V. Immunoblotting was performed using following antibodies: pDNA-PKcs at S2056 (ab18192, Abcam), DNAPK (ab53701, Abcam), pNFAT2 at S237 (ab183023, Abcam), CABIN1 (12660S, Cell signaling), GAPDH (MAB374, Millipore), and Lamin B1 (ab16048, Abcam). HRP-conjugated secondary antibody anti-Rabbit and anti-Mouse (7074S and 7076S, Cell Signaling) was used.
# Detection of calcineurin and mTOR activities: Calcineurin phosphatase activity was detected by Calcineurin Cellular Activity Assay Kit from Millipore (Billerica, MA) and mTOR signaling was detected by Calcium Detection Kit from Abcam (Cambridge, MA). The manufacturer's protocols were followed. Briefly, Jurkat cells (2 million cells/mL) were lysed using lysis buffer. For calcineurin activity, the cell lysates were desalted by gel filtration to remove free phosphates before the assay and were subjected to calcineurin activity assay. The absorbance of each sample was read at 620 nm using the plate reader. […] The absorbance of each sample was read at 450 nm using the plate reader.
# NFAT = assay: Western blot of phosphorylated NFAT (s237) in activated Jurkat cells; settings: Jurkat activated with PMA+PHA
# Experimental: Cell Culture: Human peripheral blood mononuclear cells (PBMC,) and Jurkat cells were purchased from ATCC (PCS-800-011, Manassas, VA). Cells were maintained at 37° C. in a humidified atmosphere composed of 5% CO2. Jurkat cells were cultured in RPMI 1640 medium which was supplemented with 10% FCS and human PBMC was cultured in RPMI 1640 medium which was supplemented with 10% FCS and pen/strep. Both Jurkat cells and PBMC were stimulated with PHA (50 ng/mL) and PMA (1 μg/mL) for 24 hours prior to harvesting for IL-2 detection or 6 hours prior for western blot analysis. The NU7441 DNA-PKcs inhibitor was added at varying concentrations at the time of stimulation.
# Cell lysis and nuclear extract: Cells were washed with cold PBS twice and centrifuged at 5000 rpm for 5 minutes. For the nuclear extract, pellets were suspended with 800 μL of 10 mN HEPES lysis buffer (10 mM HEPES at pH 7.9, 10 mM KCl, 1 mM DTT, and 1× protease and phosphatase inhibitor) and incubated on ice for 15 minutes. 50 μL of NP-40 (10% in water) was added and the pellets were mixed for 10 seconds. Lysates were centrifuged for 5 minutes at 4° C. at 13,000 rpm. […]
smiles,measurement,setting,value
O=c1cc(N2CCOCC2)oc2c(-c3cccc4c3sc3ccccc34)cccc12 [NU7441],CHK2 phosphorylation at Thr68,CHK2,reduced CHK2 phosphorylation
same,CHK2 phosphorylation at Thr68,CHK2; listed as NU744,reduced
same,mTOR activation (phosphorylated ser2448),mTOR,did not alter mTOR activation; also recorded: does not alter mTOR activation
same,NFAT phosphorylation at s237,NFAT,remained phosphorylated; also recorded: inhibited the dephosphorylation of NFAT
